{"source": "patent US5621007A", "about": "“Method for regulation of transmembrane chloride conductance” (Bristol-Myers Squibb Company, priority 1995, dated 1997)", "key": {"[1]": {"target": "T1, wild-type CFTR (Homo sapiens, UniProt P13569)", "T1 sequence (P13569 whole entry)": "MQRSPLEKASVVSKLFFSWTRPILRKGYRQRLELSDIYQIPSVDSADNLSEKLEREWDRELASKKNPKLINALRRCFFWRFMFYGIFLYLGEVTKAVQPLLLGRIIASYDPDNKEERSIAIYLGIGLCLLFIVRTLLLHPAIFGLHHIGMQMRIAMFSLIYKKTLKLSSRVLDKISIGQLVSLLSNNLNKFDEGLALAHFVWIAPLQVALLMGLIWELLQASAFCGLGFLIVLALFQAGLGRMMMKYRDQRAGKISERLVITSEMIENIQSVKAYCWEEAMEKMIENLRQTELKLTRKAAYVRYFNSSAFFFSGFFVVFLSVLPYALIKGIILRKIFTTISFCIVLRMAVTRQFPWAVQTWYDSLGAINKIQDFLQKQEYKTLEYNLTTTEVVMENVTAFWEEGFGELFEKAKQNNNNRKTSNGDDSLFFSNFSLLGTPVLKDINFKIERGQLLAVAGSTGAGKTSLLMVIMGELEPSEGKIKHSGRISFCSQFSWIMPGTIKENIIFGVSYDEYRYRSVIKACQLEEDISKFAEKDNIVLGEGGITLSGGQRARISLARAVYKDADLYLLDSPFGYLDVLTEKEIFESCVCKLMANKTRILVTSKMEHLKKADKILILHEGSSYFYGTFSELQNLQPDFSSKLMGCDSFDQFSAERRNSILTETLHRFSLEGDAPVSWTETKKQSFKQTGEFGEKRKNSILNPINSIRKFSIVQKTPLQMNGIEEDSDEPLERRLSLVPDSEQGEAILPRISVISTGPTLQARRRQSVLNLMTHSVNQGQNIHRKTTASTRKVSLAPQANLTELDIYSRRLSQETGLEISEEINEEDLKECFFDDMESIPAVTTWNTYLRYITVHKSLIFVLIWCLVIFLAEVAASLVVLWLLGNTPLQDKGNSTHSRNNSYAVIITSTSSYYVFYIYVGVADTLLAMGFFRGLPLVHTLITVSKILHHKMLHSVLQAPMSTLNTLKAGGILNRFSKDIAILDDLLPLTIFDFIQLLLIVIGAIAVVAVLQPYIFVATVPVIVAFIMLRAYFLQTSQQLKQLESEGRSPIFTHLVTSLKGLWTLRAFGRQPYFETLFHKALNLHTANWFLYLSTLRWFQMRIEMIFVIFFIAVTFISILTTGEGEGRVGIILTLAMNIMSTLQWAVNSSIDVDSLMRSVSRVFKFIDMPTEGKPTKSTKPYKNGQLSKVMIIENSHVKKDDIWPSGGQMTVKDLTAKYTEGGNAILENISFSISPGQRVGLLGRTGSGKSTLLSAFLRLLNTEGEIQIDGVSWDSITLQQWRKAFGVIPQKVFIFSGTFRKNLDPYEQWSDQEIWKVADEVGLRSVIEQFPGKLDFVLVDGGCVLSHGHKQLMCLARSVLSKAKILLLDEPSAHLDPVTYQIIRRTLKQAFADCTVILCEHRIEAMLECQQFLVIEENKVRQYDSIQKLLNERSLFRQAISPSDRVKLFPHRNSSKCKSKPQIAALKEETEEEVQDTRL", "assay": "Two-electrode voltage clamp, Xenopus oocytes expressing wild-type CFTR", "assay_type": "cell-based"}, "[2]": {"tested_on": "ΔF508 CFTR", "assay": "Two-electrode voltage clamp, Xenopus oocytes expressing ΔF508 CFTR", "assay_type": "cell-based"}, "[3]": {"tested_on": "uninjected or H2 O-injected oocytes", "assay": "Two-electrode voltage clamp, uninjected or H2O-injected oocytes (control)", "assay_type": "cell-based, Xenopus laevis", "details": "NS004, uninjected or H2O-injected oocytes", "procedure": "Oocytes were surgically removed from Xenopus laevis anesthetized with 0.12% 3-aminobenzoic acid ethyl ester (Tricaine). Oocytes were first rinsed with Ca^2+ -free OR2 medium (82.5 mM NaCl, 1 mM KCl, 1 mM MgCl2, 5 mM HEPES, pH 7.5 with NaOH) followed by incubation in collagenase (1.5 mg/ml prepared in Ca^2+ -free OR2 medium) for 4 hours at room temperature. After enzyme treatment, cells were rinsed 8× with OR2 medium and then rinsed again 8× with ND96 medium (90 mM NaCl, 1 mM KCl, 1 mM CaCl2, 1 mM MgCl2, 5 mM HEPES, pH 7.5 with NaOH). Oocytes were stored overnight at 17° C. Late stage V and early stage VI cells that were visualized to be fully defolliculated to the vitelline envelope were selected for microinjection.\nElectrophysiological evaluation of the effects of putative CFTR openers were assessed in oocytes expressing wild-type and ΔF508 CFTR constructs using standard two-electrode voltage clamp techniques. Generally, a family of currents was generated under control conditions (incubated in Modified Barth's Solution, MBS, a typical physiological saline medium, in the absence of drugs), with no current or small currents generated under drug-free conditions. […] Data were collected and analyzed using a computer equipped with an A/D interface and appropriate acquisition and analysis software."}, "[4]": {"target": "T1, wild-type CFTR", "assay": "125I efflux from Vero cells expressing wild-type CFTR", "assay_type": "cell-based"}, "[5]": {"tested_on": "ΔF508 CFTR", "assay": "125I efflux from Vero cells expressing ΔF508 CFTR", "assay_type": "cell-based"}, "[6]": {"target": "T1, wild-type CFTR", "assay": "Whole-cell patch clamp, Vero cells expressing wild-type CFTR", "assay_type": "cell-based"}, "[7]": {"tested_on": "ΔF508 CFTR", "assay": "Whole-cell patch clamp, Vero cells expressing ΔF508 CFTR", "assay_type": "cell-based"}, "[8]": {"tested_on": "mock transfected cells", "assay": "Whole-cell patch clamp, mock transfected Vero cells", "assay_type": "cell-based, monkey"}, "[9]": {"tested_on": "wild-type CFTR Cl- channels", "assay": "Outside-out single channel patch clamp, Vero cells expressing wild-type CFTR", "assay_type": "cell-based", "details": "sub-micromolar to micromolar NS004, outside-out excised patches"}, "[10]": {"tested_on": "ΔF508 mutant CFTR Cl- channels", "assay_type": "cell-based"}, "[11]": {"tested_on": "Control cells (not expressing CFTR constructs)", "assay": "Outside-out patch clamp, control Vero cells not expressing CFTR constructs", "assay_type": "cell-based, monkey", "procedure": "Subsequently, various concentrations of NS004 were tested for direct effects on ^125 I efflux in cells expressing wild-type and ΔF508 CFTR constructs, the ability of NS004 to affect the anion efflux stimulated by cAMP (produced by application of Forskolin) was also tested. In addition, both whole-cell and single-channel (outside-out) patch clamp configurations were employed to directly determine the effects of cAMP (produced by addition of Forskolin), NS004, and the combination of cAMP and NS004 on whole-cell and single channel Cl^- currents in infected Vero cells under nominally sodium and potassium-free conditions. In all cases data were collected and analyzed by computer."}, "[12]": {"tested_on": "mock transfected cells"}, "[13]": {"tested_on": "chloride channels", "details": "cited from earlier work"}, "[14]": {"details": "NS004 alone at the flux-experiment concentrations, Vero cells"}}, "note": "Entries after “also recorded” stand apart in the source; their conditions may differ. Like-named read-outs stand apart in the source and are kept apart here."}
{"smiles": "O=c1[nH]c2cc(C(F)(F)F)ccc2n1-c1cc(Cl)ccc1O", "note": "[NS004, 5-trifluoromethyl-1-(5-chloro-2-hydroxyphenyl)-1,3-dihydro-2H-benzimidazol-2-one]", "values": [{"measurement": "chloride current of the cAMP-stimulated channel", "setting": "[1]; NS004 added to cAMP-stimulated wild-type CFTR, oocytes", "result": "only a marginal enhancement of chloride current; also recorded: only a small potentiation of cAMP-stimulated current"}, {"measurement": "reversibility of the increase in Cl- current", "setting": "[1]; NS004 alone, Xenopus oocytes, wild-type CFTR", "result": "rapidly reversible; also recorded: reversibly open"}, {"measurement": "Cl- current", "setting": "[1]; NS004 applied alone, unstimulated wild-type CFTR, Xenopus oocytes", "result": "large increase in Cl^- current; also recorded: great efficacy; also recorded: significant increase in the Cl^- current"}, {"measurement": "potency (concentration range) for opening unstimulated wild-type CFTR", "setting": "[1]; Xenopus oocytes", "result": "sub-micromolar to micromolar"}, {"measurement": "chloride current", "setting": "[2]; NS004 applied alone, oocytes expressing ΔF508 CFTR", "result": "only a small enhancement of chloride current; also recorded: smaller direct increase in whole cell Cl^- current"}, {"measurement": "level of cAMP stimulation of channel activity (Cl- current)", "setting": "[2]; NS004 simultaneously applied with cAMP and related agents, oocytes expressing ΔF508", "result": "greatly exacerbated the level of cAMP stimulation of channel activity; also recorded: profound potentiation of cAMP stimulation of Cl^- current"}, {"measurement": "time course of cAMP-stimulated chloride current increase", "setting": "[2]; both cAMP and NS004 present, oocytes expressing ΔF508", "result": "greatly reduced (response time enhanced)"}, {"measurement": "increase in Cl- current", "setting": "[3]", "result": "never seen"}, {"measurement": "125I efflux relative to control", "setting": "[4]; NS004 20 μM alone, Vero cells expressing CFTR (FIG. 2)", "result": "increased relative to control"}, {"measurement": "125I-flux over control values", "setting": "[4]; NS004 alone, 0.1-20 micromolar concentration range, Vero cells, wild-type CFTR", "result": "increased modestly over control values; also recorded: only modest direct increases in ^125 I efflux"}, {"measurement": "total anion flux", "setting": "[4]; both cAMP and NS004, Vero cells, wild-type CFTR", "result": "did not significantly increase total anion flux"}, {"measurement": "time course of the increase in anion flux produced by cAMP", "setting": "[5]; cAMP plus NS004, Vero cells, ΔF508 CFTR", "result": "reduced the slow time course"}, {"measurement": "levels of 125I efflux attained", "setting": "[5]; co-administration of cAMP and NS004, ΔF508 CFTR, compared with cAMP in wild-type CFTR cells", "result": "comparable to the efflux stimulated by cAMP in cells expressing wild-type CFTR"}, {"measurement": "amplitude of the increase in 125I efflux produced by cAMP", "setting": "[5]; coapplication of cAMP (Forskolin, 5 μM in FIG. 2) and NS004, Vero cells, ΔF508 CFTR", "result": "greatly potentiated; also recorded: greatly enhanced the amplitude; also recorded: robust potentiation of ^125 I efflux"}, {"measurement": "125I-flux", "setting": "[5]; direct application of NS004 alone, Vero cells, ΔF508 CFTR", "result": "only marginally effected; also recorded: only modest direct increases in ^125 I efflux"}, {"measurement": "whole cell inward and outward Cl- current", "setting": "[6]; [14]", "result": "large to moderate increases; also recorded: significant increase in the Cl^- current"}, {"measurement": "whole cell Cl- current relative to cAMP alone", "setting": "[6]; combination of cAMP stimulation and NS004, Vero cells", "result": "only marginal increases in current; also recorded: only a small potentiation of cAMP-stimulated current"}, {"measurement": "whole cell inward and outward Cl- current", "setting": "[7]; [14]", "result": "large to moderate increases; also recorded: smaller direct increase in whole cell Cl^- current"}, {"measurement": "maximal stimulation of Cl- current by cAMP", "setting": "[7]; cAMP plus NS004, Vero cells", "result": "potently potentiated the maximal stimulation of Cl^- current by cAMP; also recorded: profound potentiation of cAMP stimulation of Cl^- current"}, {"measurement": "response time to peak of cAMP-stimulated Cl- current", "setting": "[7]; cAMP plus NS004, Vero cells", "result": "greatly enhanced the response time to peak"}, {"measurement": "effect on whole cell Cl- current", "setting": "[8]", "result": "no effects"}, {"measurement": "opening / open probability of single Cl- channels", "setting": "[9]", "result": "potently and directly opened Cl^- channels; also recorded: greatly increased the open probability"}, {"measurement": "opening / open probability of single Cl- channels", "setting": "[10]", "result": "rapid and reversible direct increase in the opening of these channels; also recorded: potently and directly opened Cl^- channels; also recorded: greatly increased the open probability"}, {"measurement": "channel response to drug application", "setting": "[11]", "result": "did not respond to drug application"}, {"measurement": "response on 125I efflux", "setting": "[12]", "result": "no response"}]}
{"smiles": "C1CCN2C[C@@H]3C[C@@H](CN4CCCC[C@@H]34)[C@H]2C1", "note": "[sparteine, dodecahydro-7,14-methano-2H,6H-di-pyrido[1,2-a;1',2'-e][1,5]diazocine]", "values": [{"measurement": "effect on chloride channels", "setting": "[13]; higher doses", "result": "blocking chloride channels"}, {"measurement": "effect on chloride channels", "setting": "[13]; low doses", "result": "activating chloride channels"}]}
